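48-hour exposure; five concentrations; linearly interpolated endpoints. TGI marks complete inhibition of growth.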

Among the test systems are HOP-92 NSCLC; HCT-15 colon; TK-10 renal; SNB-75 CNS; RXF 393 renal; HT29 colon; MALME-3M melanoma; OVCAR-4 ovarian; SK-MEL-5 melanoma; SF-268 CNS; NCI-H460 lung; T-47D breast.
Common to all, as to test: growth of human tumour cells (NCI), 48 h

`COc1cc2c(oc(=O)c3cc4ccoc4c(OC)c32)c2cccc(O)c12`: the TGI with HOP-92 NSCLC, in the assay on HCT-15 colon, in the assay with TK-10 renal, in the assay on SNB-75 CNS, with RXF 393 renal and in the assay on HT29 colon was greater than 100 µM throughout. For the same compound, the TGI in the assay with MALME-3M melanoma, in the assay on OVCAR-4 ovarian, in the assay on SK-MEL-5 melanoma, with SF-268 CNS and in the assay with NCI-H460 lung was greater than 100 µM throughout.
`Nc1ccc(C(=O)NN2C(=O)C(Cl)C2c2ccc([N+](=O)[O-])cc2)cc1` (configuration not stated): the TGI in the assay on HOP-92 NSCLC stood at 37.1 µM; in the assay with HCT-15 colon, 23.6 µM; in the assay with TK-10 renal it was 33.5 µM; with SNB-75 CNS it was 24.5 µM; in the assay on HT29 colon, 32.6 µM; in the assay on MALME-3M melanoma, 25 µM. For the same compound, the TGI worked out at 26.4 µM with OVCAR-4 ovarian, 28.8 µM in the assay on SK-MEL-5 melanoma, 12.2 µM with SF-268 CNS and 22.1 µM in the assay with NCI-H460 lung.
`C[C@@H]1OC(=O)C[C@H]2CC(=O)N(CCC3CN(S(=O)(=O)C(F)(F)F)c4ccc(Cc5ccc6c(c5)C(CCN5C[C@H]7[C@@H](CC(=O)O[C@H]7C)CC5=O)CN6S(=O)(=O)C(F)(F)F)cc43)C[C@@H]21` (some centres not stated): the TGI in the assay on HOP-92 NSCLC, in the assay with HCT-15 colon, in the assay on TK-10 renal, with T-47D breast, with SNB-75 CNS and in the assay with RXF 393 renal was greater than 100 µM throughout. In addition, the TGI in the assay on MALME-3M melanoma, in the assay on OVCAR-4 ovarian, with SK-MEL-5 melanoma, in the assay on SF-268 CNS and with NCI-H460 lung was greater than 100 µM throughout.
`CC(C)C(Sc1nc(-c2ccccc2)c(-c2ccccc2)[nH]1)C(=O)N/N=C/c1ccc([N+](=O)[O-])cc1` (configuration not stated): the TGI in the assay on HOP-92 NSCLC is 35.4 µM; in the assay with HCT-15 colon it was 36.5 µM; in the assay on TK-10 renal it was greater than 100 µM; with SNB-75 CNS, 42.3 µM; in the assay with HT29 colon it was 23.2 µM; with MALME-3M melanoma it was 30 µM. The TGI in the assay with OVCAR-4 ovarian came out at 80.5 µM; with SK-MEL-5 melanoma, 21.3 µM; in the assay on SF-268 CNS, 40 µM; in the assay on NCI-H460 lung it was 34.1 µM.
Consider `O=C(Nc1ccccc1)Nn1c(-c2cccs2)nc2ccc(I)cc2c1=O`, for which the TGI was 59.7 µM with HOP-92 NSCLC; greater than 100 µM in the assay with HCT-15 colon; 60.6 µM in the assay with TK-10 renal; 17.2 µM with T-47D breast; 25.6 µM in the assay with SNB-75 CNS; greater than 100 µM with RXF 393 renal. In addition, the TGI in the assay on HT29 colon is 84.7 µM; in the assay with OVCAR-4 ovarian, 90.4 µM; with SK-MEL-5 melanoma, 40.7 µM; in the assay with SF-268 CNS, greater than 100 µM; in the assay with NCI-H460 lung it was greater than 100 µM.
Regarding `Cc1nc2c(n1CCC(C)C)C(=O)c1ccccc1C2=O`, the TGI was greater than 100 µM in the assay with HCT-15 colon; greater than 100 µM in the assay on TK-10 renal; 63 µM in the assay with SNB-75 CNS; 79.7 µM in the assay on RXF 393 renal; greater than 100 µM in the assay with HT29 colon; 55.3 µM in the assay on MALME-3M melanoma. Also, the TGI is greater than 100 µM in the assay with OVCAR-4 ovarian, 28.4 µM with SK-MEL-5 melanoma, 43.1 µM in the assay on SF-268 CNS and 21.1 µM in the assay on NCI-H460 lung.
On to `O=c1oc2cc(O)ccc2cc1-c1nc2ccccc2s1`, for which the TGI in the assay with HOP-92 NSCLC was greater than 100 µM; in the assay with HCT-15 colon, greater than 100 µM; in the assay on TK-10 renal it was greater than 100 µM; with T-47D breast, 95.7 µM; in the assay with RXF 393 renal, 79.9 µM; in the assay on HT29 colon, 85.6 µM. The TGI with OVCAR-4 ovarian was greater than 100 µM; with SK-MEL-5 melanoma, 28.5 µM; with NCI-H460 lung, 62.2 µM.
`CNC(=O)c1n[nH]n(Cc2ccccc2)c1=S`: the TGI in the assay with HCT-15 colon, in the assay on TK-10 renal, in the assay on T-47D breast, with SNB-75 CNS, in the assay on RXF 393 renal and in the assay with HT29 colon was greater than 100 µM throughout. Also, the TGI in the assay on OVCAR-4 ovarian, in the assay on SK-MEL-5 melanoma and in the assay on NCI-H460 lung was greater than 100 µM each time.
Consider `CC(C)[Si](OCC1CC(C[C@H]2CC(C[C@H]3C[C@@H](CO[Si](C(C)C)(C(C)C)C(C)C)OC(C)(C)O3)OC(C)(C)O2)OC(C)(C)O1)(C(C)C)C(C)C` (some centres not stated), for which the TGI with HOP-92 NSCLC, in the assay on TK-10 renal, in the assay with SNB-75 CNS, in the assay on RXF 393 renal, in the assay on HT29 colon and in the assay on MALME-3M melanoma was greater than 100 µM each time. Also, the TGI in the assay with OVCAR-4 ovarian, in the assay on SK-MEL-5 melanoma, in the assay on SF-268 CNS and in the assay on NCI-H460 lung was greater than 100 µM each time.
As for `NC(CCCNc1cccc(O)c1)C(=O)O` (configuration not stated), the TGI in the assay with HOP-92 NSCLC, with HCT-15 colon, in the assay on TK-10 renal, in the assay with SNB-75 CNS, in the assay with RXF 393 renal and in the assay on HT29 colon was greater than 100 µM each time. Besides, the TGI in the assay with MALME-3M melanoma, in the assay with OVCAR-4 ovarian, with SK-MEL-5 melanoma, in the assay on SF-268 CNS and in the assay on NCI-H460 lung was greater than 100 µM throughout.
As to `O=C1c2ccccc2C(=O)C2C3c4ccccc4C(c4ccccc43)C12` (configuration not stated), the TGI in the assay on HCT-15 colon was greater than 100 µM; in the assay on TK-10 renal it was 63.3 µM; with SNB-75 CNS, 42.7 µM; with RXF 393 renal, 22.7 µM; in the assay on HT29 colon, 79.4 µM; with MALME-3M melanoma, 38.8 µM. The TGI in the assay with SF-268 CNS was 34.9 µM; in the assay on NCI-H460 lung, greater than 100 µM.
For the compound `CC1(C)O[C@H]2[C@@H]3N=C(c4ccccc4)O[C@@H]3C=C[C@H]2O1`, the TGI with HOP-92 NSCLC, with HCT-15 colon, with TK-10 renal, in the assay on T-47D breast, in the assay on HT29 colon and in the assay on OVCAR-4 ovarian was greater than 100 µM in each case. For the same compound, the TGI with SK-MEL-5 melanoma was greater than 100 µM; in the assay with SF-268 CNS, 33.4 µM.
In the case of `CN(C)CCCNC(=O)c1cc(NC(=O)c2cc(NC(=O)[C@H]3C[C@@H]3C(=O)Nc3cc(C(=O)Nc4cc(C(=O)NCCCN(C)C)n(C)c4)n(C)c3)cn2C)cn1C`, the TGI was 7.96 µM with HOP-92 NSCLC; greater than 100 µM with HCT-15 colon; greater than 100 µM in the assay on SNB-75 CNS; greater than 100 µM in the assay with HT29 colon; greater than 100 µM with MALME-3M melanoma; greater than 100 µM in the assay with OVCAR-4 ovarian. Moreover, the TGI with SK-MEL-5 melanoma, with SF-268 CNS and with NCI-H460 lung was greater than 100 µM throughout.

For the origin of these results see PubChem BioAssay (NCI).
